One data set relates to neutrophils. The data set is described as follows: MPO (myleoperoxidase) content, neutrophil accumulation at the site of restenosis, oral HA. It counts as in vivo, rat. The note with it: FIG. 8. The text has this:
With respect to neutrophil accumulation, reference is to be had to FIG. 8—MPO Content (oral) where MPO is Myleoperoxidase and MPO has been assayed by the methods known to persons skilled in the art. This assay for detecting myleoperoxidase (which is an enzyme) is a good test and thus a good measure for detecting neutrophils.

Another data set concerns rat carotid artery. The data set can be described thus: Stenosis after balloon angioplasty injury of the rat carotid artery, oral HA. The following applies: for N/I RATIO ± S.E.M. (NEOINTIMA /INTIMA RATIO WHERE N IS NEOINTIMA AND I IS INTIMA): rat carotid artery after balloon injury, mean of four animals. It counts as in vivo. The text has this:
FIG. 6 consists of a series of photographs of the cross-sections through carotid arteries of rats showing the effects of different amounts of orally administered Hyaluronan in stenosis of the rat carotid arteries:
All vessels were injured with a fogherty balloon as described in the prior art (Forns et. al., 1994) Cross-sections of arteries of rats treated with HA, saline or left untreated are as shown:
These values represent the mean of, and standard error of the mean (S.E.M.) of, four animals. These experiments were repeated twice with similar results.
FIG. 7 illustrates the effects of oral administration of HA on Neointimal formation in rats after balloon angioplasty. Six groups of tests were conducted, each test in respect of 3 rats. Thus, the six test results shown in […] resulted from the use of 18 rats. […] This is consistent with the findings illustrated in FIGS. 6 and 8 and the discussion herein.

A short description of data set [1]: Rat serum hyaluronic acid levels and molecular weight after oral administration (gel filtration, carbazole and aggrecan ELISA-like assay). It counts as in vivo. The note with it: for serum/blood HA amount after oral compared with subcutaneous administration: oral 30 mg/kg vs subcutaneous 30-100 mg/kg. How it is done: Elisa-Like Assay for Hyaluronic Acid in Column Fractions from Serum Obtained after the Oral Administration of Sodium Hyaluronate at 30 mg/kg (400.000)Daltons Mean Average Molecular Weight Distribution (Protein Standard), 2% by Weight in Sterile Water)
using 2 mL fraction volumes.
B.) Elisa-Like Assay for Hyaluronic Acid
Prior to assay the column fractions were prepared in the following manner:
1900 μ.L of each 2 mL fraction was frozen at—80° C. and then taken to dryness on a speed vac concentrator at room temperature.
fractions were reconstituted with 125 μ.L of ddH2O and then assayed.
The sharp drop in serum hyaluronic acid levels seen at 3 and 6 hours post-feeding appears to be a real event since it was reproduced in serum analyzed from two different animals for each time point. The overall trend appears to be satisfactory. It is indicative of an initial absorption of sodium hyaluronate in the stomach (1 hour post-feeding of HA) followed by a rapid clearance of this initial “pulse” from the blood. The second “pulse” of increased serum hyaluronic acid (9-12 hours post-feeding of HA) appears then to represent a second phase of absorption, as the administered sodium hyualuronate moves into the small and large intestine. The majority of serum hyaluronic acid at 1 hour and 9 hours post-feeding of HA (FIG. 3 (A), (D)) elutes in the region of V, indicating a molecular weight >71 kDa(Kilodaltons (high molecular weight species). Between 12-24 hours post-feeding (FIG. 3 (E), (G)), there appears to be an emergence of smaller molecular weight hyaluronic acid species in the molecular weight range between about 30 and about >80 kDa, and more particularly between 71-37.7 kDa (Kilo-daltons (peaks 1,2 and 3 in FIG. 1(G), representing 55.5, 47 and 38 kDa, respectively (Protein Standard). Two assays were used to measure HA in serum: (i) carbazole, and (ii) aggrecan assay.
F: Carbazole Assay for the Determination of Glucuronic Acid
For this assay, a linear response has been achieved with hyaluronic acid standards up to 200 μg./mL, (the range of linearity is expected to be extendible to even higher standard concentrations).
Place 3 mL of 0.025 M sodium tetraborate solution in glass tubes and cool thoroughly on ice prior to addition of samples and standards.
Carefully layer (so as to avoid mixing) 0.5 mL of sample or standard over the sodium tetraborate solution in the reaction tubes and place tubes back on ice until all tubes have been prepared.
Mix the contents of each tube thoroughly with a vortex mixer and return the tube to the ice, while mixing the others, to prevent excessive heating of sample.
Place reaction tubes in a 90° C. water bath for 10 minutes and then transfer to a tub of cool water for 5-10 minutes.
Add 100 μ.L of 0.125% carbazole solution to each tube and mix thoroughly with a vortex mixer.
Re-heat the reaction tubes in the 90° C. water bath for an additional 15 minutes. Transfer to a tub of cool water for 5-10 minutes.
Measure absorbance of samples and standards at 530 nm.
After completion of the reaction,transfter 200 μ.L of each sample and standard to individual wells of a 96 well microtest plate. Immediately measure the sample absorbance at 530 ηm (550 ηm, given the available filters with some instruments) using a microplate reader. Biotinylated Aggregcan, an HA binding protein, can be used to detect low levels of HA in serum by in ELISA assay that has been published and is known to persons skilled in the art. This assay is more sensitive than the carbazole assay and was used for conformation.
In general terms: Size exclusion chromatography separates by hydrodynamic size, large species first.

The nature of data set [2]: Human serum hyaluronan levels and molecular weight after oral administration. The following applies: oral 30.0 mg/kg, m.w. less than 750,000 daltons (Protein Standard), FIG. 10. It is filed as in vivo. The text has this: FIGS. 11A, 11B and 11C illustrate the release of amounts of hyaluronic acid into the blood stream of individuals (human) who have taken hyaluronan orally and the molecular weights of the serum hyaluronan released by the bodily processes. The molecular weights of the hyaluronan released into the human blood serum appear to include amounts at peaks between 400,000 daltons and 600,000 daltons such as less than 500,000 daltons, between about 200,000 and about 300,000 such as greater than 200,000 daltons, and between about 30,000 daltons and about 80,000 daltons (determined using the Dextran Standard).
FIG. 10 illustrates the mean serum hyaluronan concentration after giving individual humans oral dosages containing 30.0 mg/kg of hyaluronan (molecular weight less than 750,000 daltons determined by the Protein Standard).

Where [3] appears, read: oral 30 mg/kg, 12-24 hours post-feeding, Protein Standard.

Bounds are passed on as bounds.

sodium hyaluronate [HA]: the “neutrophil number (MPO content) at the site of restenosis” value in the data set on neutrophils is given as “reduces the number of neutrophils”. The “N/I RATIO ± S.E.M. (NEOINTIMA /INTIMA RATIO WHERE N IS NEOINTIMA AND I IS INTIMA)” value in the data set with rat carotid artery (1 mg/kg orally) is recorded as 2.6 ± 0.8; with rat carotid artery (3 mg/kg orally), 1.7 ± 0.4; in the data set on rat carotid artery (10 mg/kg orally) it was 0.4 ± 0.03; in the data set on rat carotid artery (30 mg/kg orally), 0.99 ± 0.06; in the data set with rat carotid artery (100 mg/kg orally) it was 1.1 ± 0.08. Also, the “neointimal to total wall ratio, order of the dose groups” value in the data set on rat carotid artery (oral HA, rats after balloon angioplasty, 3 rats per group, FIG. 7) was “greater for administration of saline, followed by the administration of HA in amounts per kilogram of body weight of 1 mg, then 100 mg, 10 mg and 3 mg”. Further, the “oral dose with optimal effects on smooth muscle cell proliferation” value in the data set with rat carotid artery (oral administration, rat, FIG. 6) lay in the range of 3 to 10 mg/kg. Besides, the “serum/blood HA amount after oral compared with subcutaneous administration” value is “similar” in data set [1] and “on the order of that seen for the subcutaneous administration of this compound at 30-100 mg/kg” in data set [1] (listed as sodium hyaluronate). Moreover, in data set [1] (setting [3]), the “molecular weight of serum hyaluronic acid, peak 1” value stood at 55.5 kDa. In data set [1] (setting [3]), the “molecular weight of serum hyaluronic acid, peak 2” value came out at 47 kDa. In data set [1] (setting [3]), the “molecular weight of serum hyaluronic acid, peak 3” value amounted to 38 kDa. Also, the “molecular weight of the majority of serum hyaluronic acid” value in data set [1] (oral 30 mg/kg, 1 hour and 9 hours post-feeding, Protein Standard) was more than 71 kDa. Moreover, the “time course of HA in blood after oral administration” value in data set [1] (oral 30 mg/kg, FIG. 3) is given as “burst of HA in blood one hour after administration, a decrease for five hours followed by a steady increase over the next eighteen hours”. Moreover, in data set [1] (oral 30 mg/kg, FIG. 4), the “time after administration at which serum hyaluronan levels increase” value is reported as “about 1.25 hours”. Besides, the “first increase of serum hyaluronic acid after oral administration” value in data set [1] (single oral dose 30 mg/kg, 2% in sterile water) is reported as “increased within the first hour”. Moreover, the “serum hyaluronic acid after the first pulse” value in data set [1] (single oral dose 30 mg/kg, 3 and 6 hours post-feeding) is “sharp decrease to background levels in normal serum at 3 and 6 hours post-feeding”. For the same substance, the “second increase of serum hyaluronic acid” value in data set [1] (single oral dose 30 mg/kg, from 9 hours post-feeding) was “increase at 9 hours post-feeding of HA and this increase is sustained over the time period extending up to 24 hours”. For the same substance, the “time window of increased serum hyaluronan levels” value in data set [2] was 4 to 12 h.

The values are drawn from patent US6537978B1, “Oral administration of effective amounts of forms of hyaluronic acid” (Jagotec AG, priority 1996, dated 2003).
